From US20260182575A1, “MOLECULES HAVING PESTICIDAL UTILITY AND INTERMEDIATES AND PROCESSES RELATED THERETO” (CORTEVA AGRISCIENCE LLC, priority 2022, published 2026) come the findings set out here.

Holding throughout (type): in vivo
Common to all, as to details: AI alone

Assay [1] deals with Fall Armyworm (Spodoptera frugiperda, LAPHFR, FAW). The assay is described as follows: Bioassay 4: fall armyworm, artificial diet, 128-cell tray. The protocol: (§1) Stock solutions were prepared with F1 as well as for each of the active ingredients individually. Test solutions were prepared from the stock solutions. Test solutions were prepared containing F1, the individual active ingredients, and mixtures of F1 with each of the active ingredients. The test solution for F1 was prepared by adding 500 μL of the stock solution to a 25 mL glass vial, then adding 500 μL of a 9:1 mixture of acetone:water. The individual active ingredients were prepared by adding 500 μL of stock solution to a 25 mL glass vial, then adding 500 μL of a 9:1 mixture of acetone:water. The test solutions containing mixtures of F1, and the individual active ingredients were prepared by adding 500 μL of the active ingredient stock solution to a 25 mL glass vial, followed by 500 μL of the F1 stock solution, creating a test solution containing 0.04% (w/v) of F1 and 0.4% (w/v) of the active ingredient. Each test solution was serially diluted to create desired doses of test solutions (F1 at 0.04% (w/v), 0.004% (w/v), 0.0004% (w/v), 0.00004% (w/v), 0.000004% (w/v), and 0.0000004% (w/v) and active ingredients at 0.4% (w/v), 0.04% (w/v), 0.004% (w/v), 0.0004% (w/v), 0.00004% (w/v), and 0.000004% (w/v)).
(§2) The test solutions were tested against CEW, FAW, and SBL using the following procedure: an artificial lepidopteran diet (Multispecies Lepidopteran Diet, Southland Products) was distributed in 128-cell bioassay trays (Frontier Agricultural Sciences™). 50 μL of test solution was pipetted into a cell in the bioassay tray. (The test solution doses of 0.04% (w/v), 0.004% (w/v), 0.0004% (w/v), 0.00004% (w/v), 0.000004% (w/v), and 0.0000004% (w/v) translated to concentrations of 5, 0.5, 0.05, 0.005, 0.0005, and 0.00005 μg/cm^2 on the diet, respectively.) A reference treatment (solvent check) was treated with the diluent only. Each treatment was replicated 8 times for each species. A 2nd instar CEW, FAW, or SBL larva was placed on top of the diet in each cell and was contained with a clear perforated adhesive lid. Test trays were held at approximately 26° C. and ambient relative humidity (RH) prior to grading.
(§3) After 5 days, the number of live larvae were recorded from each cell and percent control was measured using Abbott's correction formula (W. S. Abbott, J. Econ. Entomol. 18 (1925), pp. 265-267) as follows:
(§4) where X=No. of live larvae on solvent check and Y=No. of live larvae on treated diet. In Table B4 the “Expected % Control” was calculated using the method described in Colby S. R., Weeds, 1967, 15, 20-22. Bioassay 5: Neotropical Brown Stink Bug (Euschistus heros, EUSCHE, “BSB”).

The subject of assay [2] is Corn Earworm (Helicoverpa zea, HELIZE, CEW). Description: Bioassay 4: corn earworm, artificial diet, 128-cell tray. The protocol:
as §1, §2, §3, §4

In assay [3] the test system is Soybean Looper (Chrysodeixis includens, PSEPIN, SBL). Description: Bioassay 4: soybean looper, artificial diet, 128-cell tray. The protocol:
as §1, §2, §3, §4

Regarding `CC(C(=O)Nc1cn(-c2cccnc2)nc1Cl)S(C)(=O)=O` (stereo not drawn) [AI-2, N-(3-chloro-1-(pyridin-3-yl)-1H-pyrazol-4-yl)-2-(methylsulfonyl)propanamide], the “Average % Control AI” value in assay [1] (0.000004 wt %), in assay [2] (0.000004 wt %), in assay [2] (0.00004 wt %) and in assay [3] (0.000004 wt %) was 0.0% each time.

Take `C/C(=N\C#N)N(C)Cc1ccc(Cl)nc1` [Acetamiprid]: the “Average % Control AI” value in assay [1] (0.00004 wt %), in assay [2] (0.000004 wt %), in assay [2] (0.00004 wt %) and in assay [3] (0.00004 wt %) was 0.0% each time.

Turning to `FC(F)(F)c1ccc(COc2ncncc2C2OCCCO2)cc1` [Benzpyrimoxan], the “Average % Control AI” value in assay [1] (0.000004 wt %), in assay [2] (0.000004 wt %), in assay [2] (0.00004 wt %) and in assay [3] (0.000004 wt %) was 0.0% throughout.

On to `CC1(C)[C@H](/C=C(\Cl)C(F)(F)F)[C@@H]1C(=O)O[C@@H](C#N)c1cccc(Oc2ccccc2)c1` [Lambda-cyhalothrin], for which the “Average % Control AI” value in assay [1] (0.000004 wt %) is listed as 0.0%; in assay [1] (0.00004 wt %), 0.0%; in assay [2] (0.000004 wt %) it was 0.0%; in assay [3] (0.000004 wt %), 12.5%.

As for `CC(COc1ccc(Oc2ccccc2)cc1)Oc1ccccn1` (stereo not drawn) [Pyriproxyfen], the “Average % Control AI” value in assay [1] (0.000004 wt %) was 12.5%; in assay [2] (0.000004 wt %) it was 0.0%; in assay [2] (0.00004 wt %) it was 0.0%; in assay [3] (0.000004 wt %), 12.5%.

In the case of `CCOC(=O)OC1=C(c2cc(C)ccc2C)C(=O)N[C@]12CC[C@@H](OC)CC2` [Spirotetramat], the “Average % Control AI” value in assay [1] (0.000004 wt %) came to 0.0%; in assay [2] (0.000004 wt %) it was 0.0%; in assay [2] (0.00004 wt %) it was 0.0%; in assay [3] (0.000004 wt %) it was 12.5%.

In the case of `CC(c1ccc(C(F)(F)F)nc1)S(C)(=O)=NC#N` (stereo not drawn) [Sulfoxaflor], the “Average % Control AI” value in assay [1] (0.000004 wt %) came out at 0.0%; in assay [2] (0.000004 wt %) it was 0.0%; in assay [2] (0.00004 wt %), 0.0%; in assay [3] (0.000004 wt %), 12.5%.

On to Dinotefuran, for which the “Average % Control AI” value in assay [2] (0.000004 wt %) and in assay [2] (0.00004 wt %) was 0.0% each time.
